Laboratory results reported in PubChem BioAssay (NCI).
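1) Cells in 96-well plates. 2) Compound, 48 h, 5 concentrations. 3) Linear interpolation between surrounding doses. 4) Unreached endpoint = highest concentration. GI50 marks 50% less growth. TGI: total growth inhibition.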

Legend:
Assay in all cases: DTP human tumour cell line panel, 48 h
SF-268 CNS = system: SF-268 CNS
PC-3 prostate = system: PC-3 prostate
CCRF-CEM leukemia = system: CCRF-CEM leukemia
HCT-15 colon = system: HCT-15 colon
HL-60(TB) leukemia = system: HL-60(TB) leukemia
TK-10 renal = system: TK-10 renal
KM12 colon = system: KM12 colon
SNB-19 CNS = system: SNB-19 CNS
CAKI-1 renal = system: CAKI-1 renal
RXF 393 renal = system: RXF 393 renal
MOLT-4 leukemia = system: MOLT-4 leukemia
NCI-H23 lung = system: NCI-H23 lung
HS 578T breast = system: HS 578T breast
SNB-75 CNS = system: SNB-75 CNS
RPMI-8226 leukemia = system: RPMI-8226 leukemia
SK-MEL-5 melanoma = system: SK-MEL-5 melanoma
SF-539 CNS = system: SF-539 CNS
MALME-3M melanoma = system: MALME-3M melanoma
OVCAR-8 ovarian = system: OVCAR-8 ovarian
MDA-MB-231 breast = system: MDA-MB-231 breast
NCI-H522 lung = system: NCI-H522 lung
OVCAR-4 ovarian = system: OVCAR-4 ovarian
UO-31 renal = system: UO-31 renal
NCI-H460 lung = system: NCI-H460 lung
HCC-2998 colon = system: HCC-2998 colon
UACC-62 melanoma = system: UACC-62 melanoma
ACHN renal = system: ACHN renal
MDA-MB-435 = system: MDA-MB-435
EKVX NSCLC = system: EKVX NSCLC
NCI/ADR-RES ovarian = system: NCI/ADR-RES ovarian
OVCAR-3 ovarian = system: OVCAR-3 ovarian
786-0 renal = system: 786-0 renal
T-47D breast = system: T-47D breast
LOX IMVI melanoma = system: LOX IMVI melanoma
UACC-257 melanoma = system: UACC-257 melanoma
DU-145 prostate = system: DU-145 prostate
U251 CNS = system: U251 CNS
HOP-92 NSCLC = system: HOP-92 NSCLC
HOP-62 NSCLC = system: HOP-62 NSCLC
A498 renal = system: A498 renal
SF-295 CNS = system: SF-295 CNS
HT29 colon = system: HT29 colon
SR leukemia = system: SR leukemia
SK-MEL-28 melanoma = system: SK-MEL-28 melanoma
SK-OV-3 ovarian = system: SK-OV-3 ovarian
SN12C renal = system: SN12C renal
NCI-H226 lung = system: NCI-H226 lung
K-562 leukemia = system: K-562 leukemia
A549 NSCLC = system: A549 NSCLC
COLO 205 colon = system: COLO 205 colon
BT-549 breast = system: BT-549 breast
SW-620 colon = system: SW-620 colon
HCT-116 colon = system: HCT-116 colon
OVCAR-5 ovarian = system: OVCAR-5 ovarian
SK-MEL-2 melanoma = system: SK-MEL-2 melanoma
MCF7 breast = system: MCF7 breast
M14 melanoma = system: M14 melanoma

SMILES: O=C(CCl)N1c2ccccc2Sc2c1ccc1ccccc21
- GI50 (SF-268 CNS): 1.88 µM
- TGI (SF-268 CNS): 3.47 µM
- GI50 (PC-3 prostate): 1.74 µM
- TGI (PC-3 prostate): 4.45 µM
- GI50 (CCRF-CEM leukemia): 0.696 µM
- TGI (CCRF-CEM leukemia): 36.6 µM
- GI50 (HCT-15 colon): 1.92 µM
- TGI (HCT-15 colon): 4.83 µM
- GI50 (HL-60(TB) leukemia): 3.06 µM
- TGI (HL-60(TB) leukemia): 8.98 µM
- GI50 (TK-10 renal): 3.86 µM
- TGI (TK-10 renal): 11.5 µM
- GI50 (KM12 colon): 6.31 µM
- TGI (KM12 colon): 20.1 µM
- GI50 (SNB-19 CNS): 4.37 µM
- TGI (SNB-19 CNS): 15.1 µM
- GI50 (CAKI-1 renal): 2.05 µM
- TGI (CAKI-1 renal): 5.04 µM
- GI50 (RXF 393 renal): 1.85 µM
- TGI (RXF 393 renal): 3.43 µM
- GI50 (MOLT-4 leukemia): 2.49 µM
- TGI (MOLT-4 leukemia): > 100 µM
- GI50 (NCI-H23 lung): 2.2 µM
- TGI (NCI-H23 lung): 5.11 µM
- GI50 (HS 578T breast): 4.17 µM
- TGI (HS 578T breast): 43.9 µM
- GI50 (SNB-75 CNS): 2.45 µM
- TGI (SNB-75 CNS): 7.78 µM
- GI50 (RPMI-8226 leukemia): 3.08 µM
- TGI (RPMI-8226 leukemia): 13.1 µM
- GI50 (SK-MEL-5 melanoma): 1.73 µM
- TGI (SK-MEL-5 melanoma): 3.15 µM
- GI50 (SF-539 CNS): 2.08 µM
- TGI (SF-539 CNS): 4.81 µM
- GI50 (MALME-3M melanoma): 2.75 µM
- TGI (MALME-3M melanoma): 7 µM
- GI50 (OVCAR-8 ovarian): 2.13 µM
- TGI (OVCAR-8 ovarian): 5.48 µM
- GI50 (MDA-MB-231 breast): 2.09 µM
- TGI (MDA-MB-231 breast): 4.36 µM
- GI50 (NCI-H522 lung): 1.76 µM
- TGI (NCI-H522 lung): 3.46 µM
- GI50 (OVCAR-4 ovarian): 2.56 µM
- TGI (OVCAR-4 ovarian): 6.18 µM
- GI50 (UO-31 renal): 1.71 µM
- TGI (UO-31 renal): 3.8 µM
- GI50 (NCI-H460 lung): 2.11 µM
- TGI (NCI-H460 lung): 4.34 µM
- GI50 (HCC-2998 colon): 2.02 µM
- TGI (HCC-2998 colon): 3.59 µM
- GI50 (UACC-62 melanoma): 2.07 µM
- TGI (UACC-62 melanoma): 4.9 µM
- GI50 (ACHN renal): 1.83 µM
- TGI (ACHN renal): 3.69 µM
- GI50 (MDA-MB-435): 2.41 µM
- TGI (MDA-MB-435): 7.06 µM
- GI50 (EKVX NSCLC): 12.5 µM
- TGI (EKVX NSCLC): 25.8 µM
- GI50 (NCI/ADR-RES ovarian): 2.74 µM
- TGI (NCI/ADR-RES ovarian): 6.55 µM
- GI50 (OVCAR-3 ovarian): 1.86 µM
- TGI (OVCAR-3 ovarian): 3.26 µM
- GI50 (786-0 renal): 1.82 µM
- TGI (786-0 renal): 3.27 µM
- GI50 (T-47D breast): 2.19 µM
- TGI (T-47D breast): 6.07 µM
- GI50 (LOX IMVI melanoma): 1.12 µM
- TGI (LOX IMVI melanoma): 2.42 µM
- GI50 (UACC-257 melanoma): 2.24 µM
- TGI (UACC-257 melanoma): 5.6 µM
- GI50 (DU-145 prostate): 3.32 µM
- TGI (DU-145 prostate): 10.8 µM
- GI50 (U251 CNS): 1.65 µM
- TGI (U251 CNS): 3.13 µM
- GI50 (HOP-92 NSCLC): 1.04 µM
- TGI (HOP-92 NSCLC): 5.32 µM
- GI50 (HOP-62 NSCLC): 3.29 µM
- TGI (HOP-62 NSCLC): 12.9 µM
- GI50 (A498 renal): 12.9 µM
- TGI (A498 renal): 25.9 µM
- GI50 (SF-295 CNS): 2.38 µM
- TGI (SF-295 CNS): 6.53 µM
- GI50 (HT29 colon): 3.58 µM
- TGI (HT29 colon): 15.5 µM
- GI50 (SR leukemia): 2.4 µM
- TGI (SR leukemia): 9.55 µM
- GI50 (SK-MEL-28 melanoma): 2.98 µM
- TGI (SK-MEL-28 melanoma): 7.56 µM
- GI50 (SK-OV-3 ovarian): 13.4 µM
- TGI (SK-OV-3 ovarian): 26.2 µM
- GI50 (SN12C renal): 1.79 µM
- TGI (SN12C renal): 3.27 µM
- GI50 (NCI-H226 lung): 2.21 µM
- TGI (NCI-H226 lung): 5.26 µM
- GI50 (K-562 leukemia): 2.98 µM
- TGI (K-562 leukemia): 13 µM
- GI50 (A549 NSCLC): 9.52 µM
- TGI (A549 NSCLC): 30.3 µM
- GI50 (COLO 205 colon): 1.87 µM
- TGI (COLO 205 colon): 4.06 µM
- GI50 (BT-549 breast): 1.3 µM
- TGI (BT-549 breast): 2.63 µM
- GI50 (SW-620 colon): 1.66 µM
- TGI (SW-620 colon): 3.68 µM
- GI50 (HCT-116 colon): 1.45 µM
- TGI (HCT-116 colon): 2.78 µM
- GI50 (OVCAR-5 ovarian): 2.16 µM
- TGI (OVCAR-5 ovarian): 5.07 µM
- GI50 (SK-MEL-2 melanoma): 17.4 µM
- TGI (SK-MEL-2 melanoma): 32.9 µM
- GI50 (MCF7 breast): 2.52 µM
- TGI (MCF7 breast): 6.47 µM
- GI50 (M14 melanoma): 1.68 µM
- TGI (M14 melanoma): 3.53 µM
